The results in this text go back to ChEMBL document CHEMBL1147393, “Two new modified trichothecenes from Fusarium sporotrichioides” (J Nat Prod, 1993).

The nature of this data set: Cytotoxicity against syrian golden hamsters BHK21 cells. The data set is classed as cell-based, Mesocricetus auratus. Particulars: hamster, bhk-21.

The compound `CC1=C[C@H]2OC[C@]3(O)C[C@H](O)C[C@]3(C)[C@@]2(C)CC1` gave an LC100 of 1000 ng/mL.
Next, `CC(=O)O[C@]12CO[C@@H]3C=C(C)CC[C@]3(C)[C@@]1(C)C[C@@H](O)C2`: 1000 ng/mL.
